Data on 5 molecules can be found in ChEMBL document CHEMBL1153686, “On the microbial biogeneration of (R) -jasmolactone” (1993).

What all share (format): functional
Test [1] deals with Kodamaea ohmeri. The test can be described thus: Z-6, Z-9-dodecadien-4-olide Isolated at 24 hours incubation of compound in Pichia ohmeri.
The subject of test [2] is Kodamaea ohmeri. The test is described as follows: Z-6-dodecen-4-olide Isolated at 24 hours incubation of compound in Pichia ohmeri.
In test [3] the test system is Kodamaea ohmeri. The test can be described thus: dodecan-4-olide Isolated at 24 hours incubation of compound in Pichia ohmeri.
In test [4] the test system is Scheffersomyces stipitis. The test can be described thus: 5-tetradecen-4-olide Isolated at 24 hours incubation of compound in Pichia stipitis.
Test [5] relates to Scheffersomyces stipitis. The test is described as follows: Z-6, Z-9-dodecadien-4-olide Isolated at 24 hours incubation of compound in Pichia stipitis.
The test system of test [6] is Scheffersomyces stipitis. The test can be described thus: Z-6-dodecen-4-olide Isolated at 24 hours incubation of compound in Pichia stipitis.
The test system of test [7] is Scheffersomyces stipitis. The test is described as follows: dodecan-4-olide Isolated at 24 hours incubation of compound in Pichia stipitis.
Test [8] has as its system Kodamaea ohmeri. The test is described as follows: Z-7-decen-5-olide Isolated at 24 hours incubation of compound in Pichia ohmeri.
Test [9] has as its system Scheffersomyces stipitis. The test is described as follows: Z-7-decen-5-olide Isolated at 24 hours incubation of compound in Pichia stipitis.
The test system of test [10] is Kodamaea ohmeri. The test can be described thus: Hexane-4-olide Isolated at 24 hours incubation of compound in Pichia ohmeri.
For test [11], the system named is Scheffersomyces stipitis. The test can be described thus: 5-octen-4-olide Isolated at 24 hours incubation of compound in Pichia stipitis.
Test [12] relates to Scheffersomyces stipitis. The test is described as follows: Hexane-4-olide Isolated at 24 hours incubation of compound in Pichia stipitis.
The test system of test [13] is Kodamaea ohmeri. The test can be described thus: Decan-4-olide Isolated at 24 hours incubation of compound in Pichia ohmeri.
The test system of test [14] is Kodamaea ohmeri. The test is described as follows: E-5,Z-7-dodien-4-olide solated at 24 hours incubation of compound in Pichia ohmeri.
The subject of test [15] is Kodamaea ohmeri. The test is described as follows: E-5-decen-4-olide Isolated at 24 hours incubation of compound in Pichia ohmeri.
For test [16], the system named is Scheffersomyces stipitis. The test is described as follows: E-5,Z-7-dodien-4-olide Isolated at 24 hours incubation of compound in Pichia stipitis.
For test [17], the system named is Scheffersomyces stipitis. The test is described as follows: E-5-decen-4-olide Isolated at 24 hours incubation of compound in Pichia stipitis.
For test [18], the system named is Kodamaea ohmeri. The test is described as follows: Nonan-4-olide Isolated at 24 hours incubation of compound in Pichia ohmeri.
Test [19] deals with Kodamaea ohmeri. The test is described as follows: […] Isolated at 24 hours incubation of compound in Pichia ohmeri.
Test [20] has as its system Scheffersomyces stipitis. The test can be described thus: Octane-4-olide Isolated at 24 hours incubation of compound in Pichia stipitis.
The test system of test [21] is Scheffersomyces stipitis. The test is described as follows: […] Isolated at 24 hours incubation of compound in Pichia stipitis.

Regarding `CCCCCCCC/C=C/CCCC1CCC(=O)O1` (stereo unspecified), the Lactone production in the test on Kodamaea ohmeri [1] is 25.6; in the test on Kodamaea ohmeri [2], 11.8; with Kodamaea ohmeri [3], 4.6; with Scheffersomyces stipitis [4], 2.6; with Scheffersomyces stipitis [5] it was 16.7; in the test on Scheffersomyces stipitis [6], 11. The molecule further showed a Lactone production in the test with Scheffersomyces stipitis [7] of 4.
Take `CC/C=C/C[C@@H]1CCC(=O)O1`: the Lactone production in the test with Kodamaea ohmeri [8] was determined as 12.3; in the test with Scheffersomyces stipitis [9], 12.5.
As for `CC/C=C/CCCC1CCC(=O)O1` (stereo unspecified), the Lactone production with Kodamaea ohmeri [10] worked out at 8.25; in the test on Scheffersomyces stipitis [11], 11.9; with Scheffersomyces stipitis [12], 3.2.
Consider `CC/C=C/C=C/[C@@H]1CCC(=O)O1`, for which the Lactone production was 1.5 with Kodamaea ohmeri [13]; 20.5 in the test on Kodamaea ohmeri [14]; 7.6 with Kodamaea ohmeri [15]; 25.09 in the test with Scheffersomyces stipitis [16]; 8.6 in the test on Scheffersomyces stipitis [17].
For `CC/C=C/CC[C@@H]1CCC(=O)O1`, the Lactone production with Kodamaea ohmeri [18] came to 5.9; in the test with Kodamaea ohmeri [19] it was 1.1; in the test on Scheffersomyces stipitis [20] it was 4; in the test on Scheffersomyces stipitis [21], 0.3.
